Test results from ChEMBL document CHEMBL2057072, “Design, synthesis, and pharmacological evaluation of novel tetrahydroprotoberberine derivatives: selective inhibitors of dopamine D₁ receptor” (Bioorg Med Chem, 2012).

Experiments:
[1] = target: T1, D(1A) dopamine receptor (Homo sapiens, UniProt P21728); assay: Displacement of [3H]SCH23390 from human dopamine D1 receptor expressed in HEK293 cells at 10 uM; assay type: cell-based
[2] = target: 5-hydroxytryptamine receptor 2A (Homo sapiens) (UniProt P28223); assay: Displacement of [3H]Ketanserin from human 5HT2A receptor expressed in HEK293 cells at 10 uM; assay type: cell-based
Chain of 5-hydroxytryptamine receptor 2A (Homo sapiens) (P28223 whole entry): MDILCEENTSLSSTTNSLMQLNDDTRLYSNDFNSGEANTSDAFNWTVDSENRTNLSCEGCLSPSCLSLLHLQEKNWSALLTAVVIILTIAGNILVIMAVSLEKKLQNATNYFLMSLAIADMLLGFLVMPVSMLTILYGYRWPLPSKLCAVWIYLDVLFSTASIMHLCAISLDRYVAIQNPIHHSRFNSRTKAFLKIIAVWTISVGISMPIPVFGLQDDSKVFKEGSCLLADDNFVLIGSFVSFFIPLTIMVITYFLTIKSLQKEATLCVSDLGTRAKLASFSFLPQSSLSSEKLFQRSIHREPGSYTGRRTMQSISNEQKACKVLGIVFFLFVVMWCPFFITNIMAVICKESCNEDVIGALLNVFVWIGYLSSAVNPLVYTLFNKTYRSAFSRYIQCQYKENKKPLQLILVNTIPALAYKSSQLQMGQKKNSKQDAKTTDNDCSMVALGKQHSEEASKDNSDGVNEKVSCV

[3] = target: T1, D(1A) dopamine receptor; assay: Agonist activity at dopamine D1 receptor assessed as [35S]GTPgammaS binding in cell-based assay relative to control; assay type: functional
[4] = target: T2, D(2) dopamine receptor (Homo sapiens, UniProt P14416); assay: Displacement of [3H]Spiprone from human dopamine D2 receptor expressed in HEK293 cells at 10 uM; assay type: cell-based
T2 sequence (P14416 whole entry): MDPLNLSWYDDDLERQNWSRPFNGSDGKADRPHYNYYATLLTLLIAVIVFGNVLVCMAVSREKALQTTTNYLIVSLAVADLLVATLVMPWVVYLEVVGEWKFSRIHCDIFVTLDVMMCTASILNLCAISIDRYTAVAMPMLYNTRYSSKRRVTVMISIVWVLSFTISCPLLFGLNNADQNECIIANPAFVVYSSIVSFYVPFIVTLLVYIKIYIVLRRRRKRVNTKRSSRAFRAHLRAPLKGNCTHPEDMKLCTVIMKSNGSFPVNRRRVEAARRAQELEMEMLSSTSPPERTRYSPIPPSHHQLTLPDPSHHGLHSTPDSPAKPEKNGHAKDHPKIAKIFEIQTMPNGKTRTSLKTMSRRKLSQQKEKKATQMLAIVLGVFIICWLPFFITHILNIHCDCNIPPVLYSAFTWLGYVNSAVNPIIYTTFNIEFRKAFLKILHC

[5] = target: T3, 5-hydroxytryptamine receptor 1A (Homo sapiens) (UniProt P08908); assay: Displacement of [3H]-8-OH-DPAT from human 5HT1A receptor expressed in HEK293 cells at 10 uM; assay type: cell-based
T3 sequence (whole entry): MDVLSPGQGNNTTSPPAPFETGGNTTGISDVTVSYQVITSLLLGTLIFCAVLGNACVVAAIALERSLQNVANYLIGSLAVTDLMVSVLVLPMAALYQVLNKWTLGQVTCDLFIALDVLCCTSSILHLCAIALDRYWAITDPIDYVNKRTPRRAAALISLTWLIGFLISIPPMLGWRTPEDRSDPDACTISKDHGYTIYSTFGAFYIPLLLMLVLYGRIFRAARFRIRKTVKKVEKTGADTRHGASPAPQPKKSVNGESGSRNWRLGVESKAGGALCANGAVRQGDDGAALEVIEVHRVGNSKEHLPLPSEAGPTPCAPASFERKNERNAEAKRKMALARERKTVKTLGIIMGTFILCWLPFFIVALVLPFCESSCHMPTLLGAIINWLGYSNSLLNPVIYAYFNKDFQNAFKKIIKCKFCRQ

[6] = target: T1, D(1A) dopamine receptor; assay: Displacement of [3H]SCH23390 from human dopamine D1 receptor expressed in HEK293 cells; assay type: cell-based
[7] = target: T2, D(2) dopamine receptor; assay: Displacement of [3H]Spiprone from human dopamine D2 receptor expressed in HEK293 cells; assay type: cell-based
[8] = target: T1, D(1A) dopamine receptor; assay: Antagonist activity at dopamine D1 receptor assessed as inhibition of [35S]GTPgammaS binding in cell-based assay; assay type: functional
[9] = target: T1, D(1A) dopamine receptor; assay: Antagonist activity at dopamine D1 receptor assessed as inhibition of [35S]GTPgammaS binding in cell-based assay relative to control; assay type: functional
[10] = target: T4, 5-hydroxytryptamine receptor 1A (Homo sapiens, UniProt P08908); assay: Displacement of [3H]-8-OH-DPAT from human 5HT1A receptor expressed in HEK293 cells; assay type: cell-based
T4 sequence (P08908 whole entry): T3 sequence (whole entry)

[11] = target: D(1A) dopamine receptor (Rattus norvegicus, UniProt P18901); assay: Agonist activity at D1 receptor in rat striatum assessed as synaptosomal adenylate cyclase activity; assay type: functional, tissue-based
Chain of D(1A) dopamine receptor (Rattus norvegicus, UniProt P18901) (P18901 whole entry): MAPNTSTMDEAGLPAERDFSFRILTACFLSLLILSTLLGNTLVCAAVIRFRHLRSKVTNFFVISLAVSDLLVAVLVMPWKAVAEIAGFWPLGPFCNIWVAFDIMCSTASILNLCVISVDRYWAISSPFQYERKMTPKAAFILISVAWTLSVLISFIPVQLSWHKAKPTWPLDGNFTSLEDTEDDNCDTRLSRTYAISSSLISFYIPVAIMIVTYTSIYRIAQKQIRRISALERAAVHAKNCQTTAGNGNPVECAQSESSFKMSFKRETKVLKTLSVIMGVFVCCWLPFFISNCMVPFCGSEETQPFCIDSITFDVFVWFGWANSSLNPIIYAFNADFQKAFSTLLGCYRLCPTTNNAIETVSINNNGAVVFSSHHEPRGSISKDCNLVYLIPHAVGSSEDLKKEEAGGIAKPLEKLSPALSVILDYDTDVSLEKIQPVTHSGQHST

T1 sequence (P21728 whole entry): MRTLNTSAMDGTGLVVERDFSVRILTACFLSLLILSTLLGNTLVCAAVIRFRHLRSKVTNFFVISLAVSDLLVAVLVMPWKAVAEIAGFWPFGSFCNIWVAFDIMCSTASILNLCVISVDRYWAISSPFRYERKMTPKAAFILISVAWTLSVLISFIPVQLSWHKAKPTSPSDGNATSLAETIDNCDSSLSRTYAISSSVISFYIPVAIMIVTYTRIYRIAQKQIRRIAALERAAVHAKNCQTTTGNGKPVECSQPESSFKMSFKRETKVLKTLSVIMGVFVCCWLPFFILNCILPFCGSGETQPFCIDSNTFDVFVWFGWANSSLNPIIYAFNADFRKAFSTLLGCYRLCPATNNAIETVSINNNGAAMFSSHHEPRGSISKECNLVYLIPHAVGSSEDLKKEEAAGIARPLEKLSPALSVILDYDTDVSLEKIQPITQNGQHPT

Row | Structure (SMILES) | inhibition [1] [%] | inhibition [2] [%] | Emax [3] [%] | inhibition [4] [%] | inhibition [5] [%] | IC50 [6] [nM] | Ki [6] [nM] | IC50 [7] [nM] | Ki [7] [nM] | IC50 [8] [nM] | Imax [9] [%] | Ki [10] [nM] | EC50 [11] [nM]
1 | COc1cc(OC)c2c(c1CO)CCN1Cc3cc4c(cc3C[C@@H]21)OCO4 | 17.4 | 16.9 |  |  |  |  |  |  |  |  |  |  | 
2 | Oc1cc2c(cc1O)C(c1ccccc1)CNCC2 (stereo not given) |  |  | 100 |  |  |  |  |  |  |  |  |  | 
3 | COc1cc(OC)c2c(c1CO)C[C@H]1c3c(cc(OC)c(OC)c3OC)CCN1C2 | 7.37 | 59.7 |  | 47.2 | 67.4 |  |  |  |  |  |  |  | 
4 | COc1cc2c(cc1O)[C@@H]1Cc3c(CO)c(OC)cc(OC)c3CN1CC2 |  | 18.4 |  |  | 80.9 | 30.7 | 17.3 | 514 | 147 |  |  |  | 
5 | COc1cc2c(c(OC)c1OC)[C@@H]1Cc3cc4c(cc3CN1CC2)OCO4 | 43.4 | 72.7 |  | 70.7 | 70.3 |  |  |  |  |  |  |  | 
6 | COc1cc2c(c(OC)c1)CN1CCc3cc(OC)c(O)cc3[C@@H]1C2 |  | 32.4 |  | 83.3 | 56.9 | 4.86 |  |  |  | 1380 | 94.3 |  | 
7 | COc1cc2c(c(OC)c1)CN1CCc3cc(OC)c(OCc4ccccc4)c(OC)c3[C@@H]1C2 | 59.3 | 69.1 |  | 54.2 | 43.7 |  |  |  |  |  |  |  | 
8 | COc1cc2c(cc1O)[C@@H]1Cc3cc(C)cc(C)c3CN1CC2 |  | 27.1 |  |  | 74.5 | 56.4 | 28.9 | 456 | 161 |  |  |  | 
9 | COc1cc2c(c(OC)c1)CN1CCc3cc(OC)c(O)c(OC)c3[C@@H]1C2 |  | 51.6 |  | 58.8 | 44.9 | 98.1 | 52.3 |  |  |  |  |  | 
10 | COc1cc2c(c(OC)c1)CN1CCc3cc(OC)c(OC)cc3[C@@H]1C2 |  | 17.2 |  | 3.48 | 66.9 | 189 | 106 |  |  |  |  |  | 
11 | COc1cc2c(c(OC)c1)CN1CCc3cc(OC)cc(OC)c3[C@@H]1C2 |  | 25 |  | 81.9 | 61.7 | 14.3 | 7.97 |  |  | 23300 | 94.2 |  | 
12 | COc1cc2c(cc1OC)C1Cc3cc(C)cc(C)c3CN1CC2 (racemic) |  | 19.9 |  | 77.4 | 28.4 | 2920 | 1440 |  |  |  |  |  | 
13 | COc1cc(OC)c2c(c1CO)C[C@H]1c3cc4c(cc3CCN1C2)OCO4 |  | 56.2 |  | 41.8 |  | 324 | 182 |  |  |  |  | 600 | 
14 | COc1cc2c(cc1OC)[C@@H]1Cc3c(CO)c(OC)cc(OC)c3CN1CC2 |  | 24.1 |  | 39.5 |  | 114 | 64.1 |  |  |  |  | 730 | 
15 | COc1cc2c(cc1O)[C@@H]1Cc3ccc(O)c(OC)c3CN1CC2 [STEPHOLIDINE] |  | 45.6 |  |  | 89.3 | 12.3 | 6.23 | 105 | 56.2 |  |  |  | 41100
16 | COc1cc2c(c(OC)c1)CN1CCc3cc(OC)c(OC)c(OC)c3[C@@H]1C2 |  | 48.8 |  | 51.7 | 66.9 | 45.4 | 23.8 |  |  | 11800 | 82.5 |  | 
17 | COc1cc2c(cc1OC)[C@@H]1Cc3cc(C)cc(C)c3CN1CC2 |  | 36.5 |  |  | 54.8 | 684 | 338 | 1160 | 224 |  |  |  | 
18 | CN1CCc2cc(Cl)c(O)cc2[C@@H](c2ccccc2)C1 |  |  |  |  |  |  |  |  |  |  | 80 |  | 
19 | COc1cc2c(c(OC)c1)CN1CCc3cc4c(cc3[C@@H]1C2)OCO4 |  | 31.3 |  | 1.02 | 57.6 | 142 | 74.5 |  |  |  |  |  | 
20 | COc1ccc2c(c1)C[C@H]1c3cc4c(cc3CCN1C2)OCO4 | 83.2 | 20.8 |  | 22.7 | 5.48 |  |  |  |  |  |  |  | 
21 | COc1ccc2c(c1)C[C@H]1c3c(OC)cc(OC)c(CO)c3CCN1C2 | 56 | 21.4 |  |  | 1.34 |  |  |  |  |  |  |  | 
22 | COc1ccc(OC)c2c1C[C@H]1c3c(OC)cc(OC)c(CO)c3CCN1C2 | 48.8 | 25.3 |  |  | 33.1 |  |  |  |  |  |  |  | 
23 | COc1ccc2c(c1)C[C@H]1c3cc(OCc4ccccc4)c(OC)cc3CCN1C2 | 86 | 13.5 |  | 36 | 37.3 |  |  |  |  |  |  |  | 
24 | COc1ccc2c(c1)C[C@H]1c3cc(O)c(OC)cc3CCN1C2 |  | 68.7 |  |  | 65.6 | 68.9 | 35.8 | 873 | 347 |  |  |  | 
25 | COc1ccc2c(c1)C[C@H]1c3cc(OC)c(OC)cc3CCN1C2 | 81.9 | 33.5 |  | 10.2 | 57.4 |  |  |  |  |  |  |  | 
